According to US11981630B1, “Abietane type diterpene compound, preparation method and application thereof” (Hangzhou Normal University, priority 2022, dated 2024):
Several values for one entry are separate records, joined by “and”; a condition that tells them apart may be missing. Equal entries are not always repeated. Where two headings read alike, the source gives them in different places.

How the values were obtained:
[1] = system: human promyelocytic leukemia cell HL-60; test: in vitro tumor cell proliferation inhibition assay (MTT), HL-60; type: cell-based; conditions: for absorbance at 570 nm, Average: average of 3 wells; for absorbance at 570 nm, Average / Survival / absorbance at 570 nm (single well, S/N 1-3): parallel tests I-III; for absorbance at 570 nm (single well, S/N 1-3): MTT
Method: (§1) The abietane type diterpene compound Leucosceptrum A prepared in Embodiment 2 is tested for its anti-tumor ability, with a process as follows: in vitro tumor cell proliferation inhibition assay: exponential phase tumor cells are taken and the cell suspension concentration is adjusted (50,000-100,000 cells/mL), then the cell suspension is inoculated in 96-well plate with 100 microlitres (u L) per well (M L/well), followed by drug administration (100 μL/well) 24 h after inoculation; a blank control group, a cell control group and 6 drug groups with concentrations (3.12, 6.25, 12.5, 25, 50, 100 micromoles per litre (u mol/L)) are set up respectively, and the drug in the cell control group is cisplatin; after continuous cultivation for 72 […]

[2] = system: human lung cancer cell A549; test: in vitro tumor cell proliferation inhibition assay (MTT), A549; type: cell-based; conditions: for absorbance at 570 nm, Average: average of 3 wells; for absorbance at 570 nm, Average / Survival / absorbance at 570 nm (single well, S/N 1-3): parallel tests I-III; for absorbance at 570 nm (single well, S/N 1-3): MTT
Method: as §1

mouse liver cancer cells = conditions: MTT assay, reported in CN101633660A; cited from earlier work
mouse sarcoma cells = conditions: MTT assay, reported in CN101633660A; cited from earlier work
[3] = HL-60, 72 h, mean ± spread of parallel tests, unit inferred, read-out: IC50 obtained according to the above data (three parallel tests)
[4] = HL-60, 72 h, one value per parallel test I, II, III, unit not given (concentrations in μmol/L), read-out: IC50 according to Graphpad Prism 6.0 (single parallel test)
[5] = A549, 72 h, mean ± spread of parallel tests, unit inferred, read-out: IC50 according to the above data (three parallel tests)
[6] = A549, 72 h, one value per parallel test I, II, III, unit not given (concentrations in μmol/L), read-out: IC50 according to Graphpad Prism 6.0 (single parallel test)

Row | Compound | absorbance at 570 nm, Average ([1]; HL-60, 3.12 μmol/L, 72 h) | Survival ([1]; HL-60, 3.12 μmol/L, 72 h) | absorbance at 570 nm, Average ([1]; HL-60, 6.25 μmol/L, 72 h) | Survival ([1]; HL-60, 6.25 μmol/L, 72 h) | absorbance at 570 nm, Average ([1]; HL-60, 12.5 μmol/L, 72 h) | Survival ([1]; HL-60, 12.5 μmol/L, 72 h) | Survival ([1]; HL-60, 25 μmol/L, 72 h) | absorbance at 570 nm, Average ([1]; HL-60, 50 μmol/L, 72 h) | Survival ([1]; HL-60, 50 μmol/L, 72 h) | absorbance at 570 nm, Average ([1]; HL-60, 100 μmol/L, 72 h) | Survival ([1]; HL-60, 100 μmol/L, 72 h) | IC50 [1, 3] | IC50 [1, 4] | absorbance at 570 nm, Average ([2]; A549, 3.12 μmol/L, 72 h) | Survival ([2]; A549, 3.12 μmol/L, 72 h) | absorbance at 570 nm, Average ([2]; A549, 6.25 μmol/L, 72 h) | Survival ([2]; A549, 6.25 μmol/L, 72 h) | absorbance at 570 nm, Average ([2]; A549, 12.5 μmol/L, 72 h) | Survival ([2]; A549, 12.5 μmol/L, 72 h) | Survival ([2]; A549, 25 μmol/L, 72 h) | further results
1 | N.N.[Cl][Pt][Cl] [Cisplatin, cisplatin, reference compound] | 0.6123 and 0.433 and 0.4877 | 96.57% and 87.56% and 92.66% | 0.416 and 0.3023 and 0.4303 | 65.51% and 61.20% and 81.78% | 0.312 and 0.2347 and 0.231 | 49.05% and 47.55% and 43.96% | 43.57% and 22.80% and 31.06% | 0.11 and 0.076 and 0.0597 | 17.09% and 15.53% and 11.45% | 0.0213 and 0.0253 and 0.017 | 3.06% and 5.31% and 3.35% | 12.7 ± 1.87 µM | 14.4 µM and 10.7 µM and 13.2 µM | 0.666 and 0.6207 and 0.678 | 97.75% and 98.46% and 96.86% | 0.442 and 0.4673 and 0.4623 | 64.82% and 74.09% and 66.03% | 0.2543 and 0.2593 and 0.265 | 37.24% and 41.02% and 37.88% | 35.18% and 37.36% and 35.35% | absorbance at 570 nm (single well, S/N 1-3) ([1]; HL-60, 12.5 μmol/L, 72 h): 0.346 and 0.244 and 0.185 and 0.299 and 0.22 and 0.197 and 0.201 and 0.295; absorbance at 570 nm, Average ([2]; A549, 50 μmol/L, 72 h): 0.2027 and 0.2047 and 0.2257; Survival ([2]; A549, 50 μmol/L, 72 h): 29.64% and 32.33% and 32.21%; absorbance at 570 nm, Average ([2]; A549, 100 μmol/L, 72 h): 0.1913 and 0.189 and 0.2023; Survival ([2]; A549, 100 μmol/L, 72 h): 27.98% and 29.84% and 28.87%; IC50 [2, 5]: 16 ± 1.69 µM; IC50 [2, 6]: 14.6 µM and 17.9 µM and 15.4 µM
2 | C=C(C)c1cc(O)c2c(c1O)C(=O)CC1C(C)(C)CCCC21C (stereo not drawn) [Leucosceptrum A, 11,14-dihydroxy-8,11,13,15-abietatetraen-7-one] | 0.4477 and 0.4213 and 0.3807 | 82.21% and 78.96% and 66.67% | 0.3683 and 0.3987 and 0.364 | 67.61% and 74.70% and 63.73% | 0.221 and 0.1817 and 0.281 | 40.49% and 33.94% and 49.09% | 16.13% and 10.64% and 11.79% | 0.052 and 0.0433 and 0.048 | 9.39% and 7.95% and 8.00% | 0.0303 and 0.032 and 0.039 | 5.40% and 5.82% and 6.41% | 9.06 ± 0.59 µM | 9.58 µM and 9.19 µM and 8.42 µM | 0.815 and 0.7807 and 0.813 | 98.11% and 95.42% and 95.31% | 0.7823 and 0.7553 and 0.7943 | 94.17% and 92.31% and 93.11% | 0.6333 and 0.6687 and 0.59 | 76.22% and 81.68% and 69.13% | 21.90% and 23.22% and 22.81% | absorbance at 570 nm, Average ([1]; HL-60, 25 μmol/L, 72 h): 0.0887 and 0.0577 and 0.069; absorbance at 570 nm (single well, S/N 1-3) ([1]; HL-60, 50 μmol/L, 72 h): 0.049 and 0.054 and 0.053 and 0.048 and 0.045 and 0.037 and 0.038; IC50 ([1]; HL-60 cells, 72 h, read-out: 72-hour IC50): 9.06 ± 0.59 µM; absorbance at 570 nm (single well, S/N 1-3) ([2]; A549, 6.25 μmol/L, 72 h): 0.828 and 0.791 and 0.728 and 0.711 and 0.786 and 0.769 and 0.822 and 0.77; absorbance at 570 nm, Average ([2]; A549, 25 μmol/L, 72 h): 0.1827 and 0.192 and 0.1953; absorbance at 570 nm (single well, S/N 1-3) ([2]; A549, 50 μmol/L, 72 h): 0.085 and 0.074 and 0.077 and 0.059 and 0.071 and 0.079 and 0.088; absorbance at 570 nm, Average ([2]; A549, 50 μmol/L, 72 h): 0.0813 and 0.07 and 0.0793; Survival ([2]; A549, 50 μmol/L, 72 h): 9.68% and 8.76% and 9.19%; absorbance at 570 nm (single well, S/N 1-3) ([2]; A549, 100 μmol/L, 72 h): 0.078 and 0.067 and 0.085 and 0.073 and 0.066 and 0.058; absorbance at 570 nm, Average ([2]; A549, 100 μmol/L, 72 h): 0.0767 and 0.0657 and 0.069; Survival ([2]; A549, 100 μmol/L, 72 h): 9.12% and 7.73% and 7.98%; IC50 [2, 5]: 17.5 ± 0.88 µM; IC50 [2, 6]: 17.6 µM and 18.4 µM and 16.6 µM; IC50 ([2]; A-549 cells, 72 h, read-out: 72-hour IC50): 17.5 ± 0.88 µM
3 | lushanrubescensin D |  |  |  |  |  |  |  |  |  |  |  |  |  |  |  |  |  |  |  |  | inhibitory effect on mouse liver cancer cells (mouse liver cancer cells): significant inhibitory effect; inhibitory effect on mouse sarcoma cells (mouse sarcoma cells): significant inhibitory effect
